One series deals with T1, PKC-ι (Homo sapiens, UniProt P41743).
T1 construct: cytoplasmic extracts from different cell lines expressing appropriate PKC isoforms; endogenous in cells; host or cells: MDAMB231, LnCAP, H661, CCD16Lu, Du145, LS180 (human, from ATCC)
T1 sequence (P41743 1-596): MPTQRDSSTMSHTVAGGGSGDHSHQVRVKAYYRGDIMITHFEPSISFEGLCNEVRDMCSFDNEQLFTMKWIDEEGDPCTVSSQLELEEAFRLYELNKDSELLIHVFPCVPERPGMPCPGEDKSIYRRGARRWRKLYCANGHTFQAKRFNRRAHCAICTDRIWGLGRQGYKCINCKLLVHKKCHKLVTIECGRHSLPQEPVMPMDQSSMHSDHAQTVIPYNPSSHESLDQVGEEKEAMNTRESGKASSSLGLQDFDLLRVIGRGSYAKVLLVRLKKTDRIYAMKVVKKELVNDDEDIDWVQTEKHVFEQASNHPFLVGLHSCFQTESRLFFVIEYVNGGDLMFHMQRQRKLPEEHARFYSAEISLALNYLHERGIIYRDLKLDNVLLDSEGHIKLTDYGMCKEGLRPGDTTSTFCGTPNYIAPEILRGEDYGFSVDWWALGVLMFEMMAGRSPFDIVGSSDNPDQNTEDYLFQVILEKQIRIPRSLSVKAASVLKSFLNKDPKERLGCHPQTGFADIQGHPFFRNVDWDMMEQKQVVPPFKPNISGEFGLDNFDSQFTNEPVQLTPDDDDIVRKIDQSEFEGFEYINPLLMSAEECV
The series is described as follows: Competitive binding assay using cell extracts (Western blot). As to conditions: Cell extract; PRE at 10X, 20X antibody concentration; Table 20. The arrangement: key: —: no detectable affinity; Low to very low affinity at 10X or 20X or both PRE concentrations in at least one cell line in the cell extract assay; Low affinity in purified isoform assay.; Moderate affinity at 10X or 20X or both PRE concentrations in at least one cell line in the cell extract assay.; High affinity at 10X or 20X or both PRE concentrations in at least one cell line in the cell extract assay; High affinity in purified isoform assay. How it is done:
Binding efficiency and specificity of the peptides PRE 2, 3, 4, 5, 6, 7, 8, 9, 10, 11, 12 and 13 (see Table 3) was also tested using cytoplasmic extracts from different cell lines expressing appropriate PKC isoforms as described for Example 1. Briefly, the protein cytoplasmic extracts were separated by electrophoresis and transferred onto nitrocellulose membranes by standard Western blotting procedures. The bands on the Western blots were detected with matching primary antibodies and alkaline phosphatase conjugated secondary antibody. The bands were then scanned and the relative density measurements obtained.
This procedure to assess the binding characteristics of the PREs is based on competition binding of the PRE with the primary anti-isoform PKC specific antibodies. The lower the measured band density, the greater the binding of the PRE to the PKC isoform. The PREs were added at 10 and 20 times (10×, 20×) the primary antibody concentration, according to classical competition between antigenic peptide and primary antibody. The following cell lines (obtained from the ATCC) were used: H661—NCI human lung carcinoma NSCLC; MDAMB231—human highly invasive breast cancer cell line from pleural effusion; LS180—human colon adenocarcinoma; LnCAP—human prostate adenocarcinoma; CCD16Lu—human lung fibroblasts; Du145—human prostate carcinoma brain metastasis, and T24—human bladder carcinoma.
In these cases, the 20× band density figures relative to control and 10× values were reliable.
(A western blot detects proteins with antibodies after separation by electrophoresis.)

The test system of a further series is PKC-α. The series is described as follows: Binding of PREs to PKC-α in V5E-transfected IMR-32 cells and effect on cell morphology. Type of series: cell-based, human. The note with it: V5E-transfected IMR-32 cells; for Relative Fluorescence Intensity (mean): PRE by pinocytic endocytosis, transfected + reagent control 113. The text has this:
Neuroblastoma cells from the IMR-32 cell line were stably transfected with a vector containing the V5E sequence of PKC-α as outlined above in Example 13. The V5E sequence is part of the antigenic amino acid sequence that is used to raise the commercially available anti-PKC-α isoform-specific antibody.
The peptides PRE 1, 2, 3, 4, 5, 6, 7, 8, 9, 10, 11, 12 and 13 (see Table 3) were incorporated into the transfected IMR-32 cells via pinocytic endocytosis (Molecular Probes) according to the supplier's recommendations. Following fixation and permeabilization, PKC-α was detected using an Alexa fluor secondary antibody (as described above in Example 8).
Results: The expressed V5E fragment adds to the decoration of PKC-α in the transfected IMR-32 cells since it is recognized by the same antibody (compare FIGS. 20A and 20B).

A short description of series [1]: In vitro toxicity test (fluorimetric DNA assay, Hoechst). Type of series: cell-based, human. As to conditions: human, IMR-32 neuroblastoma cells, read-out: % survival; for viability at 24 h, 2500 µg/mL / viability at 48 h, 2500 µg/mL / viability at 72 h, 2500 µg/mL: 2.5 mg/ml; for viability at 24 h, 2500 µg/mL / viability at 48 h, 2500 µg/mL / viability at 72 h, 2500 µg/mL / viability at 24 h, 10000 µg/mL / viability at 48 h, 10000 µg/mL / viability at 72 h, 10000 µg/mL: with pinocytic endocytosis reagent; for viability at 24 h, 10000 µg/mL / viability at 48 h, 10000 µg/mL / viability at 72 h, 10000 µg/mL: 10 mg/ml. How it is done: (§1) In vitro cytotoxicity testing of the peptides PRE 3, PRE 4 and PRE 5 (see Table 3) was conducted following the general protocol outlined below (modified from “Fluorimetric DNA assay for cell growth estimation” Rao J, Otto W., Analytical Biochem. 207:186-192, 1992).
(§2) The assay was performed in 96 well plates, with 3,000 IMR-32 neuroblastoma cells seeded per well and 8 replicas were performed per treatment. The cells were pre-treated with either plain medium and a pinocytic endocytosis reagent (Molecular Probes) or medium containing the PRE under evaluation and the pinocytic endocytosis reagent. The cells were allowed to grow under conventional conditions for 3 days. The DNA content of each well was assessed at 24, 48 and 72 hours using Hoechst reagent according to standard procedures. The fluorescence intensity per well was measured using the plate reader “CytoFluor 2350” from Millipore. Excitation was 360 nm and emission was 460 nm. The number of cells is directly correlated to the DNA content.
(§3) The results are shown in Tables 11-13 as the average relative fluorescence intensity measured for the 8 replica wells, as well as the percentage of survival as compared with matching untreated controls.

Series [2] has as its system IMR-32 neuroblastoma cells. The description is as above. Type of series: cell-based, human. How it is done:
as §1, §2, §3

The mark [3] stands for this setting: 2.5 mg/ml, 24 h, with pinocytic endocytosis reagent.
Where [4] appears, read: 2.5 mg/ml, 48 h, with pinocytic endocytosis reagent.
Setting [5] is: 2.5 mg/ml, 72 h, with pinocytic endocytosis reagent.
[6] abbreviates: 10 mg/ml, 24 h, with pinocytic endocytosis reagent.
Setting [7] is: 10 mg/ml, 48 h, with pinocytic endocytosis reagent.
Where [8] appears, read: 10 mg/ml, 72 h, with pinocytic endocytosis reagent.

As to Ac-AKGIQEVKGGDAQNLIGISI-NH2 [PRE 3], the “Affinity for PKC isoform ι” value at PKC-ι is “L”. Besides, in the series with PKC-α, the “PKC-α label” value is given as “more intense perinuclear decoration”. Further, in the series on PKC-α, the “Relative Fluorescence Intensity (mean)” value amounted to 83. Besides, the viability at 24 h, 2500 µg/mL in series [1] (24 h) came to 127%. Moreover, the viability at 48 h, 2500 µg/mL in series [1] (48 h) is 150%. For the same substance, the viability at 72 h, 2500 µg/mL in series [1] (72 h) was found to be 123%. In addition, the viability at 24 h, 10000 µg/mL in series [1] (24 h) came to 120%. Also, the viability at 48 h, 10000 µg/mL in series [1] (48 h) is 129%. Further, in series [1] (72 h), the viability at 72 h, 10000 µg/mL was determined as 117%. For the same substance, the “AFI (Average fluorescence intensity)” value was 193 in series [2] (setting [3]); 389 in series [2] (setting [4]); 871 in series [2] (setting [5]); 182 in series [2] (setting [6]); 334 in series [2] (setting [7]); 830 in series [2] (setting [8]).

For Ac-AKGIQEVKGGKDAQNLIGISI-NH2 [PRE 5], in the series with PKC-α, the “effect on cell morphology” value was “poor morphology”. Further, in the series with PKC-α, the “effect on karyokinesis” value is reported as “aborted karyokinesis”. For the same substance, in the series with PKC-α, the “Relative Fluorescence Intensity (mean)” value worked out at 124. Besides, in series [1] (62.5 μg/ml, 24 h, Table 13), the viability at 24 h, 62.5 µg/mL was 113%. Also, the viability at 48 h, 62.5 µg/mL in series [1] (62.5 μg/ml, 48 h, Table 13) was determined as 117%. Besides, the viability at 72 h, 62.5 µg/mL in series [1] (62.5 μg/ml, 72 h, Table 13) was 100%. The viability at 24 h, 125 µg/mL in series [1] (125 μg/ml, 24 h, Table 13) came out at 94%. In series [1] (125 μg/ml, 48 h, Table 13), the viability at 48 h, 125 µg/mL is 107%. Further, in series [1] (125 μg/ml, 72 h, Table 13), the viability at 72 h, 125 µg/mL was determined as 93%. Also, in series [1] (250 μg/ml, 24 h, Table 13), the viability at 24 h, 250 µg/mL stood at 88%. Moreover, in series [1] (250 μg/ml, 48 h, Table 13), the viability at 48 h, 250 µg/mL worked out at 97%. Also, the viability at 72 h, 250 µg/mL in series [1] (250 μg/ml, 72 h, Table 13) was 89%. Moreover, the viability at 24 h, 500 µg/mL in series [1] (500 μg/ml, 24 h, Table 13) stood at 78%. Besides, the viability at 48 h, 500 µg/mL in series [1] (500 μg/ml, 48 h, Table 13) stood at 96%. Moreover, in series [1] (500 μg/ml, 72 h, Table 13), the viability at 72 h, 500 µg/mL was 84%. Further, the “AFI (Average fluorescence intensity)” value in series [2] (62.5 μg/ml, 24 h, 3000 cells/100 μl/well, Table 13) worked out at 717; in series [2] (62.5 μg/ml, 48 h, Table 13), 1084; in series [2] (62.5 μg/ml, 72 h, Table 13) it was 1290; in series [2] (125 μg/ml, 24 h, Table 13), 593; in series [2] (125 μg/ml, 48 h, Table 13), 991; in series [2] (125 μg/ml, 72 h, Table 13) it was 1200. Besides, the “AFI (Average fluorescence intensity)” value is 557 in series [2] (250 μg/ml, 24 h, Table 13); 899 in series [2] (250 μg/ml, 48 h, Table 13); 1150 in series [2] (250 μg/ml, 72 h, Table 13); 492 in series [2] (500 μg/ml, 24 h, Table 13); 891 in series [2] (500 μg/ml, 48 h, Table 13); 1082 in series [2] (500 μg/ml, 72 h, Table 13).

Regarding Ac-ISIGILNQADK-NH2 [PRE 10], the “effect on karyokinesis” value in the series on PKC-α is on record as “aborted karyokinesis”.

Take Ac-ISIGILQNADK-NH2 [PRE 7]: the “Affinity for PKC isoform ι” value in the series with PKC-ι is recorded as “—”.

As for Ac-KDANQLIGISI-NH2 [PRE 6], the “Affinity for PKC isoform ι” value with PKC-ι is reported as “—”. Besides, the “effect on karyokinesis” value in the series on PKC-α is reported as “aborted karyokinesis”.

Ac-KDAQNLI-NH2 [PRE 12]: the “Affinity for PKC isoform ι” value with PKC-ι was “—”. Moreover, the “effect on cell morphology” value with PKC-α is given as “little effect on the cell morphology”.

With “Ac-KDAQNLIGISI-NH2 [PRE 4, Ac-KDAQNLIGISI-NH2]”, the “Affinity for PKC isoform ι” value at PKC-ι was “M/L”. Moreover, in the series on PKC-α, the “PKC-α label” value was “decreased label”, the “effect on cell morphology” value was “morphological changes with enlarged cells” and the “Relative Fluorescence Intensity (mean)” value was found to be 79. In addition, in series [1] (24 h), the viability at 24 h, 2500 µg/mL was determined as 106% and the viability at 24 h, 10000 µg/mL is 103%. In series [1] (48 h), the viability at 48 h, 2500 µg/mL came to 99% and the viability at 48 h, 10000 µg/mL came out at 101%. Besides, in series [1] (72 h), the viability at 72 h, 2500 µg/mL is 110% and the viability at 72 h, 10000 µg/mL was 115%. Also, the “AFI (Average fluorescence intensity)” value in series [2] (setting [3]) was 179. The “AFI (Average fluorescence intensity)” value in series [2] (setting [4]) was 240. Besides, the “AFI (Average fluorescence intensity)” value in series [2] (setting [5]) came out at 777. In addition, the “AFI (Average fluorescence intensity)” value in series [2] (setting [6]) worked out at 173. In addition, the “AFI (Average fluorescence intensity)” value in series [2] (setting [7]) came out at 247. Further, the “AFI (Average fluorescence intensity)” value in series [2] (setting [8]) is on record as 809.

In the case of Ac-RDAQNLI-NH2 [PRE 13], the “Affinity for PKC isoform ι” value with PKC-ι is “—”. Further, in the series on PKC-α, the “effect on cell morphology” value is reported as “little effect on the cell morphology” and the “Relative Fluorescence Intensity (mean)” value worked out at 116.

Regarding Ac-RDAQNLIGISI-NH2 [PRE 11], in the series with PKC-α, the “effect on cell morphology” value is given as “apoptotis”.

Consider Ac-isigilgnadk-NH2 [PRE 9], for which, in the series with PKC-α, the “PKC-α label” value is “strong perinuclear label” and the “Relative Fluorescence Intensity (mean)” value was determined as 121.

RRKKGGKDFVVKR [PRE 1]: the “Affinity for PKC isoform ι” value with PKC-ι is “—”. In the series with PKC-α, the “effect on cell morphology” value is “many dividing cells and abnormal morphology”.

Source of the values: patent publication US20100041597A1, “PEPTIDES TARGETED TO PROTEIN KINASE C ISOFORMS AND USES THEREOF” (priority 2005, published 2010).
